Results on three molecules are retold here after patent US7816350B2, “Substituted [1,2,3] triazolo[4,5-D]pyrimidines as cdk inhibitors” (Institute of Experimental Botany ASCR, priority 2002, dated 2010).

The target in data set [1] is T1, p34^cdc2/cyclin B (CDC2) (Homo sapiens, UniProt P06493).
T1 construct: made in house; host or cells: Sf9 insect cells (baculovirus co-infection)
The data set can be described thus: CDK inhibition assay, p34cdc2/cyclin B kinase, histone H1 phosphorylation. The class given is biochemical. A digest of the protocol:
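Sf9-expressed human p34cdc2/cyclin B and p33cdk2/cyclin E lysates phosphorylate 1 mg/ml histone H1 with 15 μM [γ-32P]ATP, 10 min at 30 °C, pH 7.4 Hepes/MgCl2 buffer, DMSO ≤1%. SDS-PAGE and image analysis read phosphorylation; apparent inhibition constants come by graphic analysis of % maximal activity.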

Data set [2] concerns the target IκB-α kinase. The data set can be described thus: IκB-α kinase inhibitory activity, in vitro kinase assay. The class given is biochemical.
Data set [3] concerns MCF7. The experiment in a line: In vitro cytotoxic activity, MTT assay, MCF7. To be noted: Homo sapiens, 72 hours. Type of data set: cell-based. The text has this: One of the parameters used, as the basis for colorimetric assays is the metabolic activity of viable cells. For example, a microtiter assay, which uses the tetrazolium salt MTT, is now widely used to quantitate cell proliferation and cytotoxicity. For instance, this assay is used in drug screening programs and in chemosensitivity testing. Because only metabolically active cells cleave tetrazolium salts, these assays detect viable cells exclusively. In the case of MTT assay, yellow soluble tetrazolium salt is reduced to coloured water-insoluble formazan salt. After it is solubilized, the formazan formed can easily and rapidly be quantified in a conventional ELISA plate reader at 570 nm (maximum absorbance). The quantity of reduced formazan corresponds to number of vital cells in the culture.
Human T-lymphoblastic leukemia cell line CEM; promyelocytic HL-60 and monocytic U937 leukemias; breast carcinoma cell lines MCF-7, BT549, MDA-MB-231; glioblastoma U87MG cells; cervical carcinoma cells HELA; sarcoma cells U2OS and Saos2; hepatocellular carcinoma HepG2; mouse immortalized bone marrow macrophages B2.4 and B10A.4; P388D1 and L1210 leukemia; B16 and B16F10 melanomas were used for routine screening of compounds. The cells were maintained in Nunc/Corning 80 cm^2 plastic tissue culture flasks and cultured in cell culture medium (DMEM with 5 g/l glucose, 2 mM glutamine, 100 U/ml penicillin, 100 μg/ml streptomycin, 10% fetal calf serum and sodium bicarbonate).
The cell suspensions that were prepared and diluted according to the particular cell type and the expected target cell density (2.500-30.000 cells per well based on cell growth characteristics) were added by pipette (80 μl) into 96/well microtiter plates. Inoculates were allowed a pre-incubation period of 24 hours at 37° C. and 5% CO2 for stabilisation. Four-fold dilutions of the intended test concentration were added at time zero in 20 μl aliquots to the microtiter plate wells. Usually, test compound was evaluated at six 4-fold dilutions. In routine testing, the highest well concentration was 266.7 μM, but it can be the matter of change dependent on the agent. All drug concentrations were examined in duplicates. Incubations of cells with the test compounds lasted for 72 hours at 37° C., in 5% CO2 atmosphere and 100% humidity. At the end of incubation period, the cells were assayed by using the MTT. Ten microliters of the MTT stock solution were pipetted into each well and incubated further for 1-4 hours. After this incubation period, formazan was solubilized by addition of 100 μl/well of 10% SDS in water (pH=5.5) followed by further incubation at 37° C. overnight. The optical density (OD) was measured at 540 nm with the Labsystem iEMS Reader MF (UK). The tumour cell survival (TCS) was calculated using the following equation: TCS=(ODdrug exposed well/mean ODcontrol wells)×100%. The IC50 value, the drug concentration lethal to 50% of the tumour cells, was calculated from the obtained dose response curves (FIG. 2).
(In general: Tetrazolium dyes change colour on reduction, which living cells bring about.)

Data set [4] deals with K-562. The data set can be described thus: In vitro cytotoxic activity, MTT assay, K-562. Type of data set: cell-based. To be noted: Homo sapiens, K562, 72 hours.

T1 sequence (P06493 whole entry, species assumed): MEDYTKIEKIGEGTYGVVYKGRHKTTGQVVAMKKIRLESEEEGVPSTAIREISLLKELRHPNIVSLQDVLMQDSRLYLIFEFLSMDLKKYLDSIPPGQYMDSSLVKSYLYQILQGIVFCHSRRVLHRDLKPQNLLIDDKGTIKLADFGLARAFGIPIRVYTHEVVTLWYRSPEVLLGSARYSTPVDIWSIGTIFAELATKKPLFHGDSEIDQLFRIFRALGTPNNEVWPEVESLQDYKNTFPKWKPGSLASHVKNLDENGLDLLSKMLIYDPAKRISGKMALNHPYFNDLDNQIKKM
T1 sequence (P14635 whole entry partner, species assumed): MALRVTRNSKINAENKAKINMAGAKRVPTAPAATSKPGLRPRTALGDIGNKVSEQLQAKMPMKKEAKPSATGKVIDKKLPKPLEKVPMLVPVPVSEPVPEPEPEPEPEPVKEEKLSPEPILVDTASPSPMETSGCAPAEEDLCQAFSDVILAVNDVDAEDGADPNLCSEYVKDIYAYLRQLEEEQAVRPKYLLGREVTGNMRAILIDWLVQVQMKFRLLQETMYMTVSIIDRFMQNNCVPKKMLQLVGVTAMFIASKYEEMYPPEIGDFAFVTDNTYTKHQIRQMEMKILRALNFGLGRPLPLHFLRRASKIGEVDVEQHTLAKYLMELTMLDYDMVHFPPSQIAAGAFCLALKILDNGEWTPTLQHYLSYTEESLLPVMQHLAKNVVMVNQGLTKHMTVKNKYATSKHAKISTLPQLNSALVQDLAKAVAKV

The term IC50 denotes the concentration needed to halve the response being measured. A high value points to weaker potency. As usually defined, the melting point is the temperature of the solid-liquid transition. `CC(C)n1nnc2c(Nc3cccc(Cl)c3)nc(NC3CCC(N)CC3)nc21` (stereo not shown) [2-(4-aminocyclohexyl)amino-6-(3-chlorophenyl)amino-9-isopropyl-8-azapurine] came in with a melting point of 221 to 223 °C. This molecule returned an IC50 in data set [1] of 6.3 µM. The molecule further gave an IC50 in data set [2] of 60 µM. The molecule further registered an IC50 in data set [3] of 6.1 µM. In addition, in data set [4], the IC50 worked out at 7.4 µM.

`Clc1nc(NCc2ccccc2)c2[nH]nnc2n1` [Example 18, 2-Chloro-6-benzylamino-8-azapurine] displayed a melting point of 122 to 124 °C.

In turn, `NCCCNc1nc(NCc2ccccc2)c2[nH]nnc2n1` [Example 20, 2-(3-Aminopropylamino)-6-benzylamino-8-azapurine] showed a melting point of 119 to 124 °C.
